This test relates to Oxaliplatin induced peripheral neuropathy in rat. The test is described as follows: Cold hyperalgesia method (tail immersion test), oxaliplatin induced peripheral neuropathy. The test is classed as in vivo, Wistar. The following applies: for % (average tail immersion time relative to 20.00 of normal control): Table 2, doses of Table 1 p.o.; for % (average tail immersion time relative to 20.00 of normal control) / Duration of tail immersion, AVG / Duration of tail immersion, Animal Mark 1 / Duration of tail immersion, Animal Mark 2 / Duration of tail immersion, Animal Mark 3 / Duration of tail immersion, Animal Mark 4 / Duration of tail immersion, Animal Mark 5 / Duration of tail immersion, Animal Mark 6: rat; for % (average tail immersion time relative to 20.00 of normal control) / Duration of tail immersion, AVG: n=6; for % (Day 4 relative to 20.00) / Tail immersion time, Day 0 / Tail immersion time, Day 4: Table 3, groups named by human effective dose/day; for Duration of tail immersion, AVG / Duration of tail immersion, Animal Mark 1 / Duration of tail immersion, Animal Mark 2 / Duration of tail immersion, Animal Mark 3 / Duration of tail immersion, Animal Mark 4 / Duration of tail immersion, Animal Mark 5 / Duration of tail immersion, Animal Mark 6: p.o. Day 1-3 at doses of Table 1, 24 hrs after oxaliplatin 12 mg/kg i.p., cut-off 20 seconds. The procedure:
Example 21—Animal Study—Screening effect of synergistic combination or composition/formulation comprising PEA and other natural ingredients against Oxaliplatin induced peripheral neuropathy in rat.
• Species: Rat (Rattus norvegicus); • Strain: Wistar; Sex: Male/Female • No. of animals: 54 Animals (n=6 per group) • Animal House conditions: • Lighting: 12/12 hour light-dark cycle • Temperature: 25±2° C. • Relative Humidity: 30 to 70% • Temperature and relative humidity were recorded Thrice daily.
EXPERIMENTAL PROCEDURE: In study fifty-four (54) rats, were divided into total nine (09) groups. Group 1 served as the normal control, Group 2 served as the disease control, Group 3, Group 4 and Group 5 served as component (A, B and C), Group 6, Group 7 and Group 8 served as formulation of test drug, while Group 9 served as the Reference standard group. For these studies, the following combinations were used.
Group-1 received vehicle (0.25% w/v Sodium CMC) orally (p.o.) for three consecutive days (Day 1, 2 & 3). Group-2 to Group-8 received test drugs, while Group 9 received Pregabalin orally (p.o.) on Day-1, Day-2 and Day-3. All treatment groups (Group 2 to 9) were administered with oxaliplatin (12 mg/kg, i.p.) on Day-3 prior to 2 hrs of test drug administration. After 24 hrs of oxaliplatin administration, treated groups as well as the normal control group were assessed using the Cold hyperalgesia method.
Cold Hyperalgesia method (Tail Immersion Test): In the Tail-immersion test, water was maintained at low (0 to 4-C) temperature. The tail of the rat was immersed in cold water and the duration (time in seconds) of tail immersion was recorded, until the tail was withdrawn from water. The cut-off time of 20 seconds was used. The decrease in tail contact time with cold water was indicative pain whereas prolonged contact time was noted as anti-allodynic effect.

With `O=c1c(-c2ccc(O)cc2)coc2cc(O)ccc12` [Daidzein], the “% (average tail immersion time relative to 20.00 of normal control)” value is listed as 41.38%; the “% (Day 4 relative to 20.00)” value is on record as 41.38%; the “Tail immersion time, Day 0” value is 20.00; the “Tail immersion time, Day 4” value came out at 8.28. For the same compound, the “Duration of tail immersion, AVG” value worked out at 8.28 s; the “Duration of tail immersion, Animal Mark 1” value (shortened to “Duration … Animal Mark 1”) was found to be 8.55 s; the “Duration of tail immersion, Animal Mark 2” value (from here on “Duration … Animal Mark 2”) turned out to be 8.00 s; the “Duration of tail immersion, Animal Mark 3” value (“Duration … Animal Mark 3” for short) came out at 8.98 s. The “Duration of tail immersion, Animal Mark 4” value (“Duration … Animal Mark 4” for short) was determined as 7.95 s; the “Duration of tail immersion, Animal Mark 5” value (“Duration … Animal Mark 5” for short) amounted to 8.12 s; the “Duration of tail immersion, Animal Mark 6” value (“Duration … Animal Mark 6” for short) worked out at 8.05 s.

As for `O=c1c(-c2ccc(O)cc2)coc2cc(O)cc(O)c12` [Genistein], the “% (average tail immersion time relative to 20.00 of normal control)” value is reported as 37.58%; the “% (Day 4 relative to 20.00)” value is 37.58%; the “Tail immersion time, Day 0” value was 20.00; the “Tail immersion time, Day 4” value is listed as 7.52. Also, the “Duration of tail immersion, AVG” value was found to be 7.52 s; the “Duration … Animal Mark 1” value was 7.68 s; the “Duration … Animal Mark 2” value turned out to be 7.15 s; the “Duration … Animal Mark 3” value amounted to 7.23 s. For the same compound, the “Duration … Animal Mark 4” value is 7.68 s; the “Duration … Animal Mark 5” value came out at 7.68 s; the “Duration … Animal Mark 6” value stood at 7.68 s.

Consider `CC(C)C[C@H](CN)CC(=O)O` [Pregabalin, reference compound], for which the “% (average tail immersion time relative to 20.00 of normal control)” value was 96.27%; the “% (Day 4 relative to 20.00)” value came out at 96.27%; the “Tail immersion time, Day 0” value was 20.00; the “Tail immersion time, Day 4” value was 19.25. For the same compound, the “Duration of tail immersion, AVG” value stood at 19.25 s; the “Duration … Animal Mark 1” value amounted to 17.20 s; the “Duration … Animal Mark 2” value was 20.00 s; the “Duration … Animal Mark 3” value stood at 20.00 s. In addition, the “Duration … Animal Mark 4” value is 19.95 s; the “Duration … Animal Mark 5” value amounted to 18.37 s; the “Duration … Animal Mark 6” value was 20.00 s.

As for `CCCCCCCCCCCCCCCC(=O)NCCO` [PEA, Palmitoylethanolamide], the “% (average tail immersion time relative to 20.00 of normal control)” value is 55.73%; the “% (Day 4 relative to 20.00)” value is reported as 55.73%; the “Tail immersion time, Day 0” value is reported as 20.00; the “Tail immersion time, Day 4” value turned out to be 11.15. The “Duration of tail immersion, AVG” value came to 11.15 s; the “Duration … Animal Mark 1” value amounted to 11.32 s; the “Duration … Animal Mark 2” value was 11.55 s; the “Duration … Animal Mark 3” value is 10.85 s. The “Duration … Animal Mark 4” value was found to be 10.97 s; the “Duration … Animal Mark 5” value was determined as 11.44 s; the “Duration … Animal Mark 6” value amounted to 10.75 s.

These data come from patent publication US12138242B1, “Controlling neuropathic pain” (Frimline Private Limited, priority 2017, dated 2024).
